Measured values reported in patent US11041207B2 (priority 2015, dated 2021).
Values joined by “and” are separate entries in the source; they are usually repeats but may differ in a detail not shown here. Equal values may be shown once. “Also recorded” adds a separate entry of the source.

What was measured:
[1] = in vivo; cited from earlier work
schizophrenia patients = conditions: human, in vivo
[2] = design: species or system human; conditions: in vivo
[3] = system: bipolar disorder patients; conditions: in vivo; cited from earlier work
[4] = human, in vivo
[5] = human, in vivo; remark: listed apart in the source
[6] = human, in vivo; remark: listed apart in the source

SMILES	effect on circulating proline [1]	β (95% CI), bivariate association of VPA treatment with total SANS score (schizophrenia patients)	β, SANS total score of Val/Val versus Val/Met and Met/Met patients (schizophrenia patients)	patients showing improvement in negative symptoms after treatment onset [2]	blood level considered the lower end of the therapeutic range [3] [µg/mL]	L-serine level [4] [µM]	fasting glycine level [4] [µM]	fasting plasma proline, mean±SD [5]	fasting plasma proline versus patients who did not receive VPA [6]
CCO [Ethanol]	increases circulating proline levels								
CCCC(CCC)C(=O)O [VPA, 2-propylpentanoic acid]	upregulates circulating proline; also recorded: strong up-regulator of proline levels	−0.578 (−7.157, 6.001)	−12.17	2 out of 9 and 5 out of 7 and two and five	50	117	361	299.29±94.76	significantly higher
